In patent US5654451A, “Amino acids and peptides having modified C-terminals and modified N-terminals” (Magainin Pharmaceuticals Inc., priority 1995, dated 1997):
Values after ≈ are worked out from the molar mass of the structure shown.

Tests used:
Experiment in all cases: Antimicrobial assay (MIC, microtiter broth dilution)
Assay type in all cases: cell-based
B. fragilis = conditions: strain 25285
L. fermentum = conditions: strain 23271
C. difficile = system: C. difficile
P. aeruginosa = conditions: for MIC P aeruginosa: Table I, P. aeruginosa ATCC 27853; for MIC P. aeruginosa 27853: strain 27853 (Tables II-V); for MIC Psuedo: Table VI
Description: (§1) The procedure for the antimicrobial assay is based upon the guidelines of the National Committee for Clinical Laboratory Standards, Document M7-T2, Volume 8, No. 8, 1988.
(§2) 1-5×10^5 CFUs/ml of either S. aureus ATCC 25923, E. coli ATCC 25922, P. aeruginosa ATCC 27853, or C. albicans were added to the wells in full strength Mueller Hinton broth (BBL 11443) from a mid-log culture. The inoculum is standardized spectrophotometrically at 600 nm and is verified by colony counts. The plates are incubated for 16-20 hours at 37° C., and the minimal inhibitory concentrations (MIC) for the compounds are determined. Minimal inhibitory concentration is defined as the lowest concentration of amino acid or peptide which produces a clear well in the microtiter plate.

S. aureus = conditions: for MIC S. aureus: Table I, S. aureus ATCC 25923; for MIC Staph: Table VI
Description: as §1, §2

C. albicans = conditions: for MIC C. albicans: Table I; for MIC C. albicans 14053: strain 14053; for MIC Candida: Table VI
Description: as §1, §2

E. coli = conditions: for MIC E. coli 25922: strain 25922 (Tables II-V)
Description: as §1, §2

Compound | MIC Psuedo (P. aeruginosa) [µg/mL] | MIC Staph (S. aureus) [µg/mL] | MIC Candida (C. albicans) [µg/mL] | MIC E. coli (E. coli; Table VI) [µg/mL] | other results
NC(N)=NC(Cc1ccccc1)C(=O)NCCCCCCCNC(=O)C(Cc1ccccc1)N=C(N)N (stereo not drawn) [Compound 6, 1,7-[bis-N-α-amidino-phenylalanyl]diaminoheptane] |  |  |  |  | MIC B. fragilis 25285 (B. fragilis): 256 µg/mL (≈ 503 µM); MIC L. fermentum 23271 (L. fermentum): 64 µg/mL (≈ 126 µM); MIC C. difficile P324 (C. difficile; strain P324): 128 µg/mL (≈ 252 µM); MIC P aeruginosa (P. aeruginosa): > 256 µg/mL; MIC P. aeruginosa 27853 (P. aeruginosa): > 256 µg/mL; MIC S. aureus (S. aureus): 64 µg/mL (≈ 126 µM); MIC S. aureus 29213 (S. aureus; strain 29213 (Tables II-V)): 64,128 μg/ml; MIC C. albicans (C. albicans): 256 µg/mL (≈ 503 µM); MIC C. albicans 14053 (C. albicans): 256 µg/mL (≈ 503 µM); MIC E. coli (E. coli; Table I, E. coli ATCC 25922): > 256 µg/mL; MIC E. coli 25922 (E. coli): > 256 µg/mL
CCCCCCCCN(CCCCCCCC)C(=O)C(Cc1ccccc1)NCc1ncc[nH]1 (stereo not drawn) [Compound 80, N^α -(Imidazole-2-methyl)-Phe-dioctylamide] | > 256 | 2 (≈ 4.27 µM) | > 256 | > 256 | 
CCCCCCCCN(CCCCCCCC)C(=O)C(CC1CCCCC1)NC(=N)N (stereo not drawn) [Compound 74, N^α -Amidino-Cha-dioctylamide] | > 256 | 2 (≈ 4.58 µM) | 2 (≈ 4.58 µM) | > 256 | 
CCCCCCCCN(CCCCCCCC)C(=O)CCCCNC(=N)N [Compound 79, S-Guanidino Valeryl-dioctylamide] | > 256 | 2 (≈ 5.23 µM) | 1 to 2 | 8 (≈ 20.9 µM) | 
N-α-amidino phenylalanyl hexadecylamide [Compound 34] |  |  |  |  | MIC P aeruginosa (P. aeruginosa): > 256 µg/mL; MIC S. aureus (S. aureus): 32 µg/mL; MIC C. albicans (C. albicans): 64 µg/mL; MIC E. coli (E. coli; Table I, E. coli ATCC 25922): > 256 µg/mL
CCCCCCCCN(CCCCCCCC)C(=O)C(N)Cc1ccccc1 (stereo not shown) [Compound 81, Phe-dioctylamide] | > 256 | 4 (≈ 10.3 µM) | > 256 | > 256 | 
β-Guanidino-propionyl adamantanamide [Compound 82] | > 256 | 64 | > 256 | > 256 | 
CCCCCCCCN(CCCCCCCC)C(=O)[C@@H](Cc1ccccc1)NC(=N)N [Compound 70, N^α -Amidino-D Phe-dioctylamide] | 256 (≈ 594 µM) | 2 (≈ 4.64 µM) | 2 (≈ 4.64 µM) | 64 (≈ 149 µM) | 
CCCCCCCCN(CCCCCCCC)C(=O)C(Cc1cnc[nH]1)NC(=N)N (stereo not drawn) [Compound 78, N^α -Amidino-His-dioctylamide] | 8 (≈ 19 µM) | 1 (≈ 2.38 µM) | 1 (≈ 2.38 µM) | 4 (≈ 9.51 µM) | 
CCCCCN(CCCCC)C(=O)C(Cc1ccccc1)NC(=N)N (stereo not drawn) [Compound 67, N^α -Amidino-Phe-dipentylamide] | 128 (≈ 369 µM) | 4 (≈ 11.5 µM) | 64 (≈ 185 µM) | 64 (≈ 185 µM) | 
N=C(N)NC(Cc1ccccc1)C(=O)Nc1ccc(C=Cc2ccc(NC(=O)C(N)Cc3ccccc3)cc2)cc1 (stereo not drawn) [Compound 24, 4-(N-α-amidino-phenylalanyl)-4'-phenylalanyl-diaminostilbene] |  |  |  |  | MIC B. fragilis 25285 (B. fragilis): 8 µg/mL (≈ 14.6 µM); MIC L. fermentum 23271 (L. fermentum): 4 µg/mL (≈ 7.32 µM); MIC C. difficile TTU614 (C. difficile; strain TTU614): 16 µg/mL (≈ 29.3 µM); MIC P. aeruginosa 27853 (P. aeruginosa): 32,64 μg/ml; MIC C. albicans 14053 (C. albicans): 256 µg/mL (≈ 468 µM); MIC E. coli 25922 (E. coli): 16 µg/mL (≈ 29.3 µM)
N=C(N)NC(CCC(=O)NC12CC3CC(CC(C3)C1)C2)C(=O)NC12CC3CC(CC(C3)C1)C2 (stereo not drawn) [Compound 86, N^α -Amidino-Glu-(α,γ) diadamantanamide] | 128 (≈ 281 µM) | 4 (≈ 8.78 µM) | 32 to 64 | 128 (≈ 281 µM) | 
β-Guanidino-propionyl dodecylamide [Compound 37] | 16 | 1 | 4 | 4 to 8 | 
CCCCCCCCCCCCNC(=O)c1ccc(CNC(=N)N)cc1 [Compound 38, P-Guanidino-methyl-benzoyl-dodecylamide] | 64 (≈ 178 µM) | 1 to 2 | 4 (≈ 11.1 µM) | 16 (≈ 44.4 µM) | 
N-α-amidino-phenylalanyl dodecylamide [Compound 31] |  |  |  |  | MIC P aeruginosa (P. aeruginosa): 64 µg/mL; MIC S. aureus (S. aureus): 2 µg/mL; MIC C. albicans (C. albicans): 4 µg/mL; MIC E. coli (E. coli; Table I, E. coli ATCC 25922): 8 µg/mL
CCCCCCCNC(=O)C(Cc1ccc(C(=N)N)cc1)NC(=N)N (stereo not drawn) [Compound 29, p-guanyl-N-α-amidino-phenylalanyl heptylamide] |  |  |  |  | MIC P aeruginosa (P. aeruginosa): > 256 µg/mL; MIC S. aureus (S. aureus): 64 µg/mL (≈ 185 µM); MIC C. albicans (C. albicans): 256 µg/mL (≈ 739 µM); MIC E. coli (E. coli; Table I, E. coli ATCC 25922): > 256 µg/mL
β-Guanidino-propionyl dioctylamide [Compound 75] | 16 | 0.5 to 1.0 | 1.0 | 4 to 8 | 
N=C(N)NC(Cc1ccccc1)C(=O)NC1CCCCC1 (stereo not drawn) [Compound 77, N^α -Amidino-Phe-cyclohexylamide] | > 256 | 128 (≈ 444 µM) | > 256 | > 256 | 
CCCCCCCCN(CCCCCCCC)C(=O)CCNC(=O)CC(O)CNC(=N)N (stereo not drawn) [Compound 87, γ-Guanidino-β-hydroxy butyryl-β-Ala-dioctylamide] | 16 (≈ 35.1 µM) | 2 (≈ 4.39 µM) | 0.5 (≈ 1.1 µM) | 4 (≈ 8.78 µM) | 
CCCCCCCCN(CCCCCCCC)C(=O)C(Cc1ccc(F)cc1)NC(=N)N (stereo not drawn) [Compound 83, N^α -Amidino-p-F-Phe-diocytlamide] | 128 (≈ 285 µM) | 2 (≈ 4.46 µM) | 2 (≈ 4.46 µM) | 64 (≈ 143 µM) | 
p-Guanidino methyl-benzoyl dioctylamide [Compound 72] | 64 | 1 | 0.5 | 4 | 
CCCCCCN(CCCCCC)C(=O)C(Cc1ccccc1)NC(=N)N (stereo not drawn) [Compound 68, N^α -Amidino-Phe-dihexylamide] | 16 to 64 | 0.5 to 1.0 | 4 to 16 | 16 to 32 | 
CCCCCCCCN(CCCCCCCC)C(=O)CC(O)CNC(=N)N (stereo not drawn) [Compound 84, γ-Guanidino-β-hydroxy butyrul dioctylamide] | 16 (≈ 41.6 µM) | 1 (≈ 2.6 µM) | 0.5 (≈ 1.3 µM) | 4 (≈ 10.4 µM) | 
N=C(N)NC(Cc1ccccc1)C(=O)NC12CC3CC(CC(C3)C1)C2 (stereo not drawn) [Compound 76, N^α -Amidino-Phe-adamantanamide] | 256 (≈ 752 µM) | 16 (≈ 47 µM) | 128 (≈ 376 µM) | 256 (≈ 752 µM) | 
CCCCCCCCN(CCCCCCCC)C(=O)C(Cc1c[nH]c2ccccc12)NC(=N)N (stereo not drawn) [Compound 66, N^α -Amidino-Trp-dioctylamide] | 256 (≈ 545 µM) | 8 (≈ 17 µM) | 16 (≈ 34.1 µM) | 256 (≈ 545 µM) | 
